# From PMC12292791, “Insights into Membrane Damage by α-Helical and β-Sheet Peptides” (Biomolecules, 2025)
# Peptide text beside a SMILES is read from it.
# Assays:
# [1] = ANTS/DPX dye leakage assay with large unilamellar vesicles; assay type: biochemical; conditions: 500 µM lipid
# Experimental: Large unilamellar vesicles were prepared using a modified procedure from Wimley. Individual solutions of 1-palmitoyl-2-oleoyl-glycero-3-phosphocholine (POPC) and 1-palmitoyl-2-oleoyl-sn-glycero-3-phospho-(1’-rac-glycerol) (sodium salt) (POPG) lipids (Avanti Research, Alabaster, AL, USA) in chloroform were mixed in a 7:3 mol/mol POPC–POPG ratio, and the chloroform was gently evaporated under a stream of nitrogen gas. The lipid film was then dried in vacuo overnight. After complete evaporation of the chloroform, the lipid film was resuspended in the vesicle preparation buffer to yield a 25 mM lipid solution. The vesicle preparation buffer consisted of 45 mM KCl, 10 mM Tris HCl, 8 mM 8-aminonaphthalene-1,3,6-trisulfonic acid disodium salt (ANTS) (Fisher Scientific Inc., Waltham, MA, USA), and 32 mM p-xylene-bis-pyridinium bromide (DPX) (Fisher Scientific, Inc.). The lipid film was allowed to dissolve in the vesicle preparation buffer for approximately 15 min. If any lipid film remained on the side of the tube, the solution was gently pipetted up and down to mix the film with the liposome suspension. Once the film was thoroughly dissolved, the lipid suspension was subjected to 10 freeze/thaw cycles using a dry ice/ethanol bath and a 60 °C water bath to facilitate encapsulation of the fluorophore and quencher pair (ANTS and DPX). […]
# Lyophilized peptide was dissolved in the liposome elution buffer at a volume corresponding to half the total volume needed for the experiment. The liposome solution was diluted to 1 mM lipid from the concentration calculated using the phosphorus concentration method described above. […]
# Fluorescence measurements were conducted on a Tecan Spark® 20M plate reader (Tecan, Männedorf, Zurich, Switzerland). […] The wells were excited at 355 nm with a bandwidth of 5 nm, and emission was monitored at a wavelength of 520 nm with a bandwidth of 10 nm. The gain and z-position were calculated using a well containing liposomes lysed with reduced Triton^TM X-100 (Sigma-Aldrich) to produce maximum fluorescence. […]
# To ensure accurate comparison across batches of liposomes, the percentage leakage was calculated using the formula: PercentLeakage=F−F0/Flysed−F0×100 where F is the relative fluorescence (RF) at time t, F0 is the RF at t=0 , and Flysed is the RF after the addition of detergent. Since leakage occurred immediately upon mixing the liposome and peptide solutions, the initial fluorescence ( F0 ) was determined by adding the relative fluorescence of liposomes alone to the relative fluorescence of the peptide in the elution buffer at each relevant concentration. […] Leakage experiments were performed at least in triplicate, and error bars were calculated as the standard deviation about the mean. […]
# [2] = Solubility in liquid elution buffer observed during CD measurements; assay type: physicochemical; conditions: liposome elution buffer (75 mM KCl, 20 mM Tris HCl), lyophilized peptide dissolved, 25 °C CD samples
# Experimental: Circular dichroism (CD) spectra were recorded using a Jasco-815 circular dichroism spectrometer with a 0.1 mm path-length quartz cuvette. Scans were performed at 25 °C in duplicate, covering the wavelength range of 190–260 nm. The scanning parameters included a 1.0 nm data pitch, 1.0 nm bandwidth, and a scanning speed of 100 nm/min.
# Additionally, the spectra recorded in the presence of the LUVs differed from those recorded in buffer alone. […] At peptide concentrations higher than 500 µM, M03 began to lose solubility, while M04 began to precipitate from solution at concentrations higher than 200 µM. The reduced solubility of M04 was likely due to the orientation of all its hydrophobic residues on one face of the α -helix, making it more prone to aggregation in aqueous solutions. […] It is also important to note that the CD spectra of M03 and M04 were noticeably different from each other. This underscores the effect that varying the sequence pattern, even slightly, can have on the resulting peptide properties.
# [3] = immediately upon dissolution in aqueous solvent; cited from earlier work
# Description: In the following section, we discuss the secondary structure and membrane damage properties of M03 and M04. […] This happened immediately upon dissolution in aqueous solvent; likely before it was able to interact with the membranes. Therefore, it was difficult to determine the effect of M01 peptides on membranes experimentally, as the leakage observed was likely due to mechanical disruption of the liposomes as the peptide monomers assembled ...
molecule,measurement,setting,value
"CC(=O)N[C@@H](Cc1ccccc1)C(=O)N[C@@H](Cc1ccccc1)C(=O)N[C@@H](CCCCN)C(=O)N[C@@H](CCCCN)C(=O)N[C@@H](Cc1ccccc1)C(=O)N[C@@H](Cc1ccccc1)C(=O)N[C@@H](CCC(=O)O)C(=O)N[C@@H](CCC(=O)O)C(N)=O [Peptide M02, Ac-FFKKFFEE-NH2] (Ac-FFKKFFEE-NH2)",leakage,"[1]; peptide 100 µM, 500 µM and 1 mM (P:L 1:5, 1:1, 2:1), 7:3 POPC–POPG LUVs, ANTS/DPX",minimal leakage
"CC(=O)N[C@@H](Cc1ccccc1)C(=O)N[C@@H](Cc1ccccc1)C(=O)N[C@@H](CCCCN)C(=O)N[C@@H](CCCCN)C(=O)N[C@@H](Cc1ccccc1)C(=O)N[C@@H](Cc1ccccc1)C(=O)N[C@@H](CCC(=O)O)C(=O)N[C@@H](CCC(=O)O)C(=O)N[C@@H](Cc1ccccc1)C(=O)N[C@@H](Cc1ccccc1)C(=O)N[C@@H](CCCCN)C(=O)N[C@@H](CCCCN)C(=O)N[C@@H](Cc1ccccc1)C(=O)N[C@@H](Cc1ccccc1)C(=O)N[C@@H](CCC(=O)O)C(=O)N[C@@H](CCC(=O)O)C(N)=O [Peptide M03, Ac-(FFKKFFEE)2-NH2] (Ac-FFKKFFEEFFKKFFEE-NH2)",percentage of leakage,"[1]; all P:L ratios tested (1:50, 2:50, 1:10, 1:5, 2:5), ANTS/DPX in 7:3 POPC–POPG LUVs, 75 mM KCl/20 mM Tris HCl, room temperature, fluorescence ex 355/em 520 nm, at least triplicate",greater than 80%
same,peptide concentration above which the peptide begins to lose solubility / precipitate,[2],higher than 500 µM
"CC(=O)N[C@@H](Cc1ccccc1)C(=O)N[C@@H](Cc1ccccc1)C(=O)N[C@@H](CCCCN)C(=O)N[C@@H](CCCCN)C(=O)N[C@@H](Cc1ccccc1)C(=O)N[C@@H](Cc1ccccc1)C(=O)N[C@@H](CCC(=O)O)C(=O)N[C@@H](CCC(=O)O)C(=O)N[C@@H](Cc1ccccc1)C(=O)N[C@@H](CCCCN)C(=O)N[C@@H](CCCCN)C(=O)N[C@@H](Cc1ccccc1)C(=O)N[C@@H](Cc1ccccc1)C(=O)N[C@@H](CCC(=O)O)C(=O)N[C@@H](CCC(=O)O)C(=O)N[C@@H](Cc1ccccc1)C(N)=O [Peptide M04, Ac-FFKKFFEEFKKFFEEF-NH2] (Ac-FFKKFFEEFKKFFEEF-NH2)",percentage of leakage,"[1]; P:L 1:50 (lowest ratio), ANTS/DPX in 7:3 POPC–POPG LUVs, 75 mM KCl/20 mM Tris HCl, fluorescence, at least triplicate",no leakage
same,percentage of leakage (damage),"[1]; P:L 2:50, ANTS/DPX in 7:3 POPC–POPG LUVs, 75 mM KCl/20 mM Tris HCl, fluorescence, at least triplicate",21%
same,peptide concentration above which the peptide begins to lose solubility / precipitate,[2],higher than 200 µM
"Ac-FKFEFKFE-NH2 [Peptide M01, 8-residue amphipathic β-sheet forming peptide]",self-assembly / aggregation,[3],self-assembled into supramolecular β -sheet rich fibers
